Measured values from BindingDB's records for patent US20240199630 (CNIO, 2024).

Each molecule was assayed against Serine/threonine-protein kinase pim-1 (Homo sapiens, UniProt P11309).
Serine/threonine-protein kinase pim-1, sequence (P11309 whole entry): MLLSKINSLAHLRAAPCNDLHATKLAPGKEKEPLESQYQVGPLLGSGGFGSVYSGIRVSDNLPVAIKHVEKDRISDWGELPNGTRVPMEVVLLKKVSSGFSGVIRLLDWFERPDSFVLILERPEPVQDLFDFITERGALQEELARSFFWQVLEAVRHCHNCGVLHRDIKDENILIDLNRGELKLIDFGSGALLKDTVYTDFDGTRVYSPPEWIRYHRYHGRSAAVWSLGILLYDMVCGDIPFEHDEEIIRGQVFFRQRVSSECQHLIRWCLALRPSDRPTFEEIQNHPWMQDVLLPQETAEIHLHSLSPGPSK
Work on `CN(CC1CCNCC1)c1nn2c(-c3ccnc(C(F)(F)F)c3)cnc2c2c1N(C)CCO2` [US20240199630, Compound T4.1] yielded an IC50 of 0.9 nM. In the case of `CNCC1CCN(c2nn3c(-c4ccnc(C(F)(F)F)c4)cnc3c3c2N(C)CCO3)CC1` [US20240199630, Compound T4.2], the IC50 is reported as 5.5 nM. `CN1CCOc2c1c(N1CCC3(CCCNC3)CC1)nn1c(-c3ccnc(C(F)(F)F)c3)cnc21` [US20240199630, Compound T4.6] was tested, and the IC50 was 8.3 nM. For `CN1CCOc2c1c(N1CCCC3(CCNCC3)C1)nn1c(-c3ccnc(C(F)(F)F)c3)cnc21` [US20240199630, Compound T4.7], the IC50 was 1.1 nM. `CN1CCOc2c1c(NC1CC3(CCNCC3)C1)nn1c(-c3ccnc(C(F)(F)F)c3)cnc21` [US20240199630, Compound T4.8] was tested, and the IC50 was 2 nM. `CN1CCOc2c1c(N1CCC3(CC1)CC(N)C3)nn1c(-c3ccnc(C(F)(F)F)c3)cnc21` [US20240199630, Compound T4.9] showed an IC50 of 0.8 nM.
